Data taken from patent publication US20020026053A1, “Novel 3-(substituted) -2- indolinones compounds and use thereof as inhibitors of protein kinase activity” (priority 1997, published 2002).

Columns and labels:
PDGF-R = PDGF-R Assay (cellular ELISA, U1242 cells); type: cell-based; set-up: concentration or dose not given beside the values; conditions: protocol P.119
Procedure, shortened: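 U1242 cells seeded in 0.5% serum, serum-starved, then exposed to compound for 2 hr at 37°C before 5–10 min ligand stimulation and lysis in HNTG. Lysate captured on receptor-antibody-coated plates; phosphotyrosine detected with polyclonal anti-pTyr, goat anti-rabbit IgG and ABTS/H2O2, A410 (ref 630 nm), versus untreated cells.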

EGFR = target: T1, EGFR (Homo sapiens, UniProt P00533); assay: Biochemical EGFR Assay; set-up: concentration or dose not given beside the values; conditions: protocol P.167
T1 construct: endogenous in cells; host or cells: A431 cells (lysate, captured with SUMO1 anti-EGFR antibody)
T1 sequence (P00533 25-1210): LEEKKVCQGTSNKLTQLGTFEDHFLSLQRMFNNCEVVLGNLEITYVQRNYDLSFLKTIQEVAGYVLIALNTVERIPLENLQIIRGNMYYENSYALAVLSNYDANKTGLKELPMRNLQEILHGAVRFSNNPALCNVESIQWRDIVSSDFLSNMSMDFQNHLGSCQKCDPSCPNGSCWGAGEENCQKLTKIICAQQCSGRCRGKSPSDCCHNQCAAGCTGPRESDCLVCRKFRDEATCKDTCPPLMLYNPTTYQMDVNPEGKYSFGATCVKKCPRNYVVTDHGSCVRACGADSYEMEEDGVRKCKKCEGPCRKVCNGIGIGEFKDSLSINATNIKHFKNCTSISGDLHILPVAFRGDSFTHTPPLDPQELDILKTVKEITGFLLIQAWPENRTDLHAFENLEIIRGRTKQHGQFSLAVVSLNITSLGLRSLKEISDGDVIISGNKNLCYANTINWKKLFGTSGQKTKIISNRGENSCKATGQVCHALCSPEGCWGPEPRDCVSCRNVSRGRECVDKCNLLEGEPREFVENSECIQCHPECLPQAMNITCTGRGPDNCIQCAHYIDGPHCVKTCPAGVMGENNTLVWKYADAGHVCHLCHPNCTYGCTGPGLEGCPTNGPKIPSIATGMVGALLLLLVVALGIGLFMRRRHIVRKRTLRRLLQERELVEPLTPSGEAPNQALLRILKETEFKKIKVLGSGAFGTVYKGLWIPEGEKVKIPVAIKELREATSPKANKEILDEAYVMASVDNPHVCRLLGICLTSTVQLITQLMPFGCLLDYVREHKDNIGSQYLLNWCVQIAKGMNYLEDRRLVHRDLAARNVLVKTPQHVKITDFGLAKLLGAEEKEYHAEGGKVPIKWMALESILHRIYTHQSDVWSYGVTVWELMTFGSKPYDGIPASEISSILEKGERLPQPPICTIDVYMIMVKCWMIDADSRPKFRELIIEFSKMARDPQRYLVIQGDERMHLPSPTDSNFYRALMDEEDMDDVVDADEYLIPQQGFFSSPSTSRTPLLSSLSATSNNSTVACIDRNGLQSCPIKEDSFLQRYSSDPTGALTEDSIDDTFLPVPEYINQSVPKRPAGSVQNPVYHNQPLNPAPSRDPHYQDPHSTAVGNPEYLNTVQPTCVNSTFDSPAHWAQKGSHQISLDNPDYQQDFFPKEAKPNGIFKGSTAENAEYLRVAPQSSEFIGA
Procedure, shortened: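 EGFR from A431 lysate was captured on anti-EGFR-coated wells and preincubated 30 min with compound (diluted 1:10 in TBS) at room temperature. After ATP/MnCl2 phosphorylation for 5 min, the reaction was stopped with EDTA. Phosphotyrosine was detected by ELISA (anti-phosphotyrosine, peroxidase conjugate, ABTS) at 410 nm.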

Cc1ccc(C)c(C=C2C(=O)Nc3c(Br)cc(Br)c(C)c32)c1 [10737/H07]
PDGF Kinase % Inhibition (P.119) (PDGF-R): −17.7%
Biochem EGFR % Inhibition (P.167) (EGFR): 17.2%

Cc1c(Br)cc(Br)c2c1C(=Cc1ccc3ccccc3c1)C(=O)N2 [10737/H08]
PDGF Kinase % Inhibition (P.119) (PDGF-R): −26.9%
Biochem EGFR % Inhibition (P.167) (EGFR): −36.6%

Cc1c(Br)cc(Br)c2c1C(=Cc1ccc(Oc3ccccc3)cc1)C(=O)N2 [10737/H09]
PDGF Kinase % Inhibition (P.119) (PDGF-R): −11.7%
Biochem EGFR % Inhibition (P.167) (EGFR): −15.9%

Cc1c(Br)cc(Br)c2c1C(=Cc1cccc(Oc3ccc(C(C)(C)C)cc3)c1)C(=O)N2 [10737/H10]
PDGF Kinase % Inhibition (P.119) (PDGF-R): −12.9%
Biochem EGFR % Inhibition (P.167) (EGFR): 0.3%

Cc1c(Br)cc(Br)c2c1C(=Cc1cccc(Oc3cccc(C(F)(F)F)c3)c1)C(=O)N2 [10737/H11]
PDGF Kinase % Inhibition (P.119) (PDGF-R): −16.5%
Biochem EGFR % Inhibition (P.167) (EGFR): 4.5%
